Experimental data as given in patent US9181181B2, “2-substituted-3-phenylpropionic acid derivatives and their use in the treatment of inflammatory bowel disease” (Albireo AB, priority 2007, dated 2015).

How the values were obtained:
human PPARalpha = human PPARalpha (Homo sapiens (Human), UniProt Q07869); experiment: Transactivation (reporter gene) assay, GAL4-PPARalpha LBD in U-2 OS cells; format: cell-based; conditions: 40 h incubation, 16 μM ETYA as 100% control, read-out: EC50 PPARα
Description: (§1) Transactivation Assay Expression vectors were prepared by inserting the ligand binding domain cDNA (complementary DNA) of human PPARalpha (amino acid 168-468) and human PPARgamma (amino acid 205-505), 3′ to and in frame with, the yeast GAL4 transcription factor DNA binding domain and the nuclear localization signal from the T-antigen of Polyoma Virus into the mammalian expression vector pSGS (Stratagene). The resulting expression vectors pSGGAL-PPARalpha and pSGGAL-PPARgamma were used in co-transfection experiments together with a modified pGL3 promoter plasmid (Promega) containing five copies of the UAS GAL4 recognition site. 2.5 μg pSGGAL-PPARalpha or pSGGAL-PPARgamma were mixed with 25 μg pGL3p […] and 22.5 μg pBluescript (Stratagene) in 0.95 mL ice cold PBS containing between 9-12 million U-2 OS (human osteosarcoma) cells. The cell/DNA mixture was incubated on ice for 5 minutes and then divided between two 0.4 cm cuvettes and electroporated at 960 μF, 230 V using a BioRad electroporator. The two electroporation mixes were combined in assay medium [Dulbecco's Modified Eagle Medium w/o phenol red, (Gibco 11880-028) including 10% FBS (Foetal Bovine Serum), 1% PEST (Penicillin & Streptomycin), 20 mM Hepes, 2 mM L-Glutamine and 0.36% Glucose (Gibco 31966-021)] at 0.32 million cells/ml. 25 μl diluted, electroporated cells, were seeded into 384-well plates and allowed to adhere for 3-4 h at 37° C., 5% CO2 in a cell culture incubator. Test compounds in DMSO were diluted 40 fold in assay medium. 7 μl of diluted compound was added to the adhered electroporated cells and incubation was continued for 40 h in a cell culture incubator. Cells were lysed by adding 32 μl/well LucLite (Packard) and incubated at room temperature for 15 minutes. Luciferase activity was measured using a luminometry protocol on a Wallac Victor2 plate reader. 16 μM ETYA was used as the 100% control for humanPPARalpha activity and 16 μM Pioglitazone was used as the 100% control for humanPPARgamma activity. In Vivo Assay Determination of Plasma Clearance and Oral Bioavailability in Hamster or Mouse

human PPARgamma = human PPARgamma (Homo sapiens (Human), UniProt P37231); experiment: Transactivation (reporter gene) assay, GAL4-PPARgamma LBD in U-2 OS cells; format: cell-based; conditions: 40 h incubation, 16 μM Pioglitazone as 100% control, read-out: EC50 PPARγ
Description: as §1

Sequence of human PPARalpha (Q07869 168-468): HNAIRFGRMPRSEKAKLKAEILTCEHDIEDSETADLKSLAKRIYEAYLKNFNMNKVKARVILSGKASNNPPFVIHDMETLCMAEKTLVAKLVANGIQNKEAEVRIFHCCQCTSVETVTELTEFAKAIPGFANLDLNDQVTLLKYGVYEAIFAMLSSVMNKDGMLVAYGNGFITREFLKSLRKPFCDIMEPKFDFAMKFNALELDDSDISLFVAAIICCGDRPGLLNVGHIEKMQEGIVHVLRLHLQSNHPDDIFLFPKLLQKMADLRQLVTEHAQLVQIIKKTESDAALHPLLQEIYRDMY
Sequence of human PPARgamma (P37231 205-505): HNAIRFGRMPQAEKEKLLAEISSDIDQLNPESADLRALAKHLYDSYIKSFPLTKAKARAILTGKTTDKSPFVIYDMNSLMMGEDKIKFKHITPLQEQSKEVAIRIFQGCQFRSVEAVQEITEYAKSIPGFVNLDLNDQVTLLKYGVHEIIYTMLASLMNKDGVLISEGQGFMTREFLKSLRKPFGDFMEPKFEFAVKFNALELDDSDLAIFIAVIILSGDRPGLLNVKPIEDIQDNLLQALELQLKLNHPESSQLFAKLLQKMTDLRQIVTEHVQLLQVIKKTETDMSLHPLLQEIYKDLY

Structure (SMILES)	EC50 (human PPARalpha)	EC50 (human PPARgamma)
O=C(Cc1ccc(C(F)(F)F)cc1)OCc1ccc(SCc2ccccc2C(=O)O)cc1 [Example 29, 2-{4-[2-(4-Trifluoromethyl-phenyl)-acetoxymethyl]-phenylsulfanylmethyl}-benzoic acid]	0.029 µM	0.76 µM
O=C(Cc1ccc(SCc2ccccc2C(=O)O)cc1)OCc1ccc(C(F)(F)F)cc1 [Example 30, 2-[4-(4-Trifluoromethyl-benzyloxycarbonylmethyl)-phenylsulfanylmethyl]-benzoic acid]	0.16 µM	1.7 µM
CC(OC(=O)Cc1cccc(SCc2ccccc2C(=O)O)c1)c1ccc(C(F)(F)F)cc1 (stereo not drawn) [Example 31, 2-{3-[1-(4-Trifluoromethyl-phenyl)-ethoxycarbonylmethyl]phenylsulfanylmethyl}-benzoic acid]	18 µM	3.5 µM
O=C(Cc1cccc(SCc2ccccc2C(=O)O)c1)OCCc1ccc(C(F)(F)F)cc1 [Example 32, 2-{3-[2-(4-Trifluoromethyl-phenyl)-ethoxycarbonylmethyl]-phenylsulfanylmethyl}-benzoic acid]	5.5 µM	3 µM
Cc1cccc(C)c1COC(=O)Cc1ccc(SCc2ccccc2C(=O)O)cc1 [Example 33, 2-[4-(2,6-Dimethyl-benzyloxycarbonylmethyl)-phenylsulfanylmethyl]-benzoic acid]	0.62 µM	18 µM
C=CCC(OC(=O)Cc1ccc(SCc2ccccc2C(=O)O)cc1)c1ccccc1 (stereo not drawn) [Example 34, 2-[4-(1-Phenyl-but-3-enyloxycarbonylmethyl)-phenylsulfanylmethyl]-benzoic acid]	18 µM	15 µM
COC(=O)C(Cc1ccccc1)OC(=O)Cc1cccc(SCc2ccccc2C(=O)O)c1 (stereo not drawn) [Example 35, 2-[3-(1-Methoxycarbonyl-2-phenyl-ethoxycarbonylmethyl)-phenylsulfanylmethyl]-benzoic acid]	22 µM	6 µM
COc1ccc(CCOC(=O)Cc2ccc(SCc3ccccc3C(=O)O)cc2)cc1OC [Example 36, 2-{4-[2-(3,4-Dimethoxy-phenyl)-ethoxycarbonylmethyl]-phenylsulfanylmethyl}-benzoic acid]	21 µM	7 µM
COC(=O)C(Cc1ccccc1)OC(=O)Cc1ccc(SCc2ccccc2C(=O)O)cc1 (stereo not drawn) [Example 37, 2-[4-(1-Methoxycarbonyl-2-phenylethoxycarbonylmethyl)phenylsulfanylmethyl]-benzoic acid]	2.2 µM	3.9 µM
O=C(Cc1cccc(SCc2ccccc2C(=O)O)c1)OCCc1ccccc1C(F)(F)F [Example 38, 2-{3-[2-(2-Trifluoromethylphenyl)ethoxycarbonylmethyl]phenylsulfanylmethyl}-benzoic acid]	3.8 µM	9 µM
O=C(Cc1ccc(SCc2ccccc2C(=O)O)cc1)OCCc1ccccc1C(F)(F)F [Example 40, 2-{4-[2-(2-Trifluoromethylphenyl)ethoxycarbonylmethyl]phenylsulfanylmethyl}-benzoic acid]	0.76 µM	8.2 µM
Cc1cccc(C)c1COC(=O)Cc1cccc(SCc2ccccc2C(=O)O)c1 [Example 41, 2-[3-(2,6-Dimethyl-benzyloxycarbonylmethyl)-phenylsulfanylmethyl]-benzoic acid]	15 µM	3.8 µM
O=C(Cc1cccc(SCc2ccccc2C(=O)O)c1)OCc1ccc(-n2cccn2)cc1 [Example 42, 2-[3-(4-Pyrazol-1-yl-benzyloxycarbonylmethyl)-phenylsulfanylmethyl]-benzoic acid]	18 µM	4.2 µM
O=C(Cc1ccc(SCc2ccccc2C(=O)O)cc1)OCc1ccc(-n2cccn2)cc1 [Example 43, 2-[4-(4-Pyrazol-1-yl-benzyloxycarbonylmethyl)-phenylsulfanylmethyl]-benzoic acid]	16 µM	4.2 µM
COc1ccc(CCOC(=O)Cc2cccc(SCc3ccccc3C(=O)O)c2)cc1OC [Example 44, 2-{3-[2-(3,4-Dimethoxy-phenyl)-ethoxycarbonylmethyl]-phenylsulfanylmethyl}-benzoic acid]	18 µM	11 µM
